Data from paper PMC12259270, “Sensory neuron–expressed FGF13 controls nociceptive signaling in diabetic neuropathy models” (The Journal of Clinical Investigation, 2025).
Residues, ends and D or L forms follow the SMILES beside them. *: point of attachment. Cbz = O=C(OCc1ccccc1)*; OtBu = CC(C)(C)O*

Target: T1, human Nav1.7 (Homo sapiens, UniProt Q15858)
T1 construct: expressed in transfected cells; host or cells: HEK293 stably expressing human Nav1.7
Assay: Whole-cell patch-clamp, HEK293 cells stably expressing human Nav1.7 with GFP or FGF13-GFP
Type: cell-based
Details: for Time constant of repriming, Mean: Fig 1L, PW164; for Activation / Long-term inactivation, 2nd Pulse / Long-term inactivation, 3rd Pulse / Long-term inactivation, 4th Pulse / Peak Density / Steady state inactivation / Tau (τ): HEK293 Nav1.7
Description: Whole-cell patch clamp electrophysiology
HEK293-Nav1.7 cells, HEK293 stably expressing human Nav1.6 (HEK-Nav1.6), HEK293 stably expressing human Nav1.5 (HEK-Nav1.5), human hIPSC-derived sensory neurons (RealDRGTM from Anatomic Incorporated 1020F1-1M) and donor-derived DRG neurons were plated at low density on glass coverslips and processed for whole-cell patch clamp electrophysiology in voltage-clamp and/or current clamp mode. Whole-cell patch electrophysiological experiments were conducted following previously published studies (26). Current densities were obtained by dividing INa amplitude by membrane capacitance. Current –voltage relationships were generated by plotting current density as a function of the […]. Conductance (G Na) was calculated by the […]
where INa is the current amplitude at voltage Vm, and Erev is the Na+ reversal potential.
Activation curves were derived by plotting normalized GNa as a function of test potential and fitted using […]
Where GNa,Max is the maximum conductance, Va is the membrane potential of half-maximal activation, Em is the membrane voltage and k is the slope factor. For steady -state inactivation, normalized current amplitude (INa/INa,Max) at the test potential was plotted as a function of prepulse potential (Vm) and fitted using the […]
Where Vh is the potential of half-maximal inactivation, E m is the membrane voltage, and k is the slope factor.
Transient INa inactivation decay was estimated with the standard exponential equation. Inactivation time constant (tau, τ) was fitted with the following equation: […]
where I(t) is the amplitude of the current at time t and Iss is the steady-state current during a single voltage-step.
The goodness of fitting was determined by correlation coefficient (R), and the cutoff of R was set at 0.85. To observe effects on long-term inactivation (LTI), a four-step protocol was employed during which cells were subjected to four 0 mV, 20 ms depolarization pulses separated by −90 mV, 40 ms recovery intervals. To control for various cell sizes, the current densities were calculated by dividing INa peak current amplitude/membrane capacitance (Cm). To represent the fraction of channels entering into LTI, the peak INa observed during depolarization cycles 2-4 was normalized to the peak INa observed during depolarization cycle 1 (INa/INa,Cycle 1) and plotted as a function of the depolarization cycle.
The cumulative (frequency-dependent) use-dependency was determined by applying 20 pulses with a depolarization to −10 mV (50 ms duration) and 50 ms recovery intervals with a train of 20 pulses at 10 Hz from a holding potential at -70 mV. The current pulses were normalized to the first reco rded pulse and the currents at the 2nd to 20th pulses were compared. The same train was used to record use-dependency at various frequencies […]
The rate of recovery from inactivation was recorded at -80 mV with a standard repriming voltage protocol.
The cells were prepulsed to -20 mV for 20 ms to inactivate all currents, then driven back to the recovery potential (Vrec) for increasing recovery durations before the test pulse to 0 mV. The maximum pulse rate was 0.5 Hz. The […]
follows previous publications (16). The time constants were estimated from single exponential decay to time courses measured at recovery potentials ranging from -140 to -60 mV with the protocol as mentioned above.
Electrophysiological Recordings
HEK293 cells: Electrophysiological recordings in HEK293 stably expressing Nav1.7 (HEK-Nav1.7), Nav1.5 (HEK-Nav1.5) or Nav1.6 (HEK-Nav1.6) were performed at room temperature using a MultiClamp 700B or an Axopatch 200B amplifier (Molecular Devices) after incubating coverslips for 60 minutes either with 0.1% DMSO or 50 μM PW164 or ZL192 in the extracellular solution. The composition of recording solutions consisted of the […]
following salts: extracellular (mM): 140 NaCl, 3 KCl, 1 MgCl2, 1 CaCl2, 10 HEPES, 10 glucose, pH 7.3; […]
intracellular (mM): 130 CH3O3 SCs, 1 EGTA, 10 NaCl, 10 HEPES, pH 7.3. […]

T1 sequence (Q92913 1-192 partner limits assumed): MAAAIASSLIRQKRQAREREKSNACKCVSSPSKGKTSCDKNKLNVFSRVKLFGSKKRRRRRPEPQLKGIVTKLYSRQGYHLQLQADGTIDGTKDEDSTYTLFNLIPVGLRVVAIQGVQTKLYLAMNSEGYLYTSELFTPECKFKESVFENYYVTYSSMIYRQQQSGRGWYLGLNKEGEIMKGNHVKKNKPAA
T1 sequence (Q15858 1-1977 isoform Q15858-3): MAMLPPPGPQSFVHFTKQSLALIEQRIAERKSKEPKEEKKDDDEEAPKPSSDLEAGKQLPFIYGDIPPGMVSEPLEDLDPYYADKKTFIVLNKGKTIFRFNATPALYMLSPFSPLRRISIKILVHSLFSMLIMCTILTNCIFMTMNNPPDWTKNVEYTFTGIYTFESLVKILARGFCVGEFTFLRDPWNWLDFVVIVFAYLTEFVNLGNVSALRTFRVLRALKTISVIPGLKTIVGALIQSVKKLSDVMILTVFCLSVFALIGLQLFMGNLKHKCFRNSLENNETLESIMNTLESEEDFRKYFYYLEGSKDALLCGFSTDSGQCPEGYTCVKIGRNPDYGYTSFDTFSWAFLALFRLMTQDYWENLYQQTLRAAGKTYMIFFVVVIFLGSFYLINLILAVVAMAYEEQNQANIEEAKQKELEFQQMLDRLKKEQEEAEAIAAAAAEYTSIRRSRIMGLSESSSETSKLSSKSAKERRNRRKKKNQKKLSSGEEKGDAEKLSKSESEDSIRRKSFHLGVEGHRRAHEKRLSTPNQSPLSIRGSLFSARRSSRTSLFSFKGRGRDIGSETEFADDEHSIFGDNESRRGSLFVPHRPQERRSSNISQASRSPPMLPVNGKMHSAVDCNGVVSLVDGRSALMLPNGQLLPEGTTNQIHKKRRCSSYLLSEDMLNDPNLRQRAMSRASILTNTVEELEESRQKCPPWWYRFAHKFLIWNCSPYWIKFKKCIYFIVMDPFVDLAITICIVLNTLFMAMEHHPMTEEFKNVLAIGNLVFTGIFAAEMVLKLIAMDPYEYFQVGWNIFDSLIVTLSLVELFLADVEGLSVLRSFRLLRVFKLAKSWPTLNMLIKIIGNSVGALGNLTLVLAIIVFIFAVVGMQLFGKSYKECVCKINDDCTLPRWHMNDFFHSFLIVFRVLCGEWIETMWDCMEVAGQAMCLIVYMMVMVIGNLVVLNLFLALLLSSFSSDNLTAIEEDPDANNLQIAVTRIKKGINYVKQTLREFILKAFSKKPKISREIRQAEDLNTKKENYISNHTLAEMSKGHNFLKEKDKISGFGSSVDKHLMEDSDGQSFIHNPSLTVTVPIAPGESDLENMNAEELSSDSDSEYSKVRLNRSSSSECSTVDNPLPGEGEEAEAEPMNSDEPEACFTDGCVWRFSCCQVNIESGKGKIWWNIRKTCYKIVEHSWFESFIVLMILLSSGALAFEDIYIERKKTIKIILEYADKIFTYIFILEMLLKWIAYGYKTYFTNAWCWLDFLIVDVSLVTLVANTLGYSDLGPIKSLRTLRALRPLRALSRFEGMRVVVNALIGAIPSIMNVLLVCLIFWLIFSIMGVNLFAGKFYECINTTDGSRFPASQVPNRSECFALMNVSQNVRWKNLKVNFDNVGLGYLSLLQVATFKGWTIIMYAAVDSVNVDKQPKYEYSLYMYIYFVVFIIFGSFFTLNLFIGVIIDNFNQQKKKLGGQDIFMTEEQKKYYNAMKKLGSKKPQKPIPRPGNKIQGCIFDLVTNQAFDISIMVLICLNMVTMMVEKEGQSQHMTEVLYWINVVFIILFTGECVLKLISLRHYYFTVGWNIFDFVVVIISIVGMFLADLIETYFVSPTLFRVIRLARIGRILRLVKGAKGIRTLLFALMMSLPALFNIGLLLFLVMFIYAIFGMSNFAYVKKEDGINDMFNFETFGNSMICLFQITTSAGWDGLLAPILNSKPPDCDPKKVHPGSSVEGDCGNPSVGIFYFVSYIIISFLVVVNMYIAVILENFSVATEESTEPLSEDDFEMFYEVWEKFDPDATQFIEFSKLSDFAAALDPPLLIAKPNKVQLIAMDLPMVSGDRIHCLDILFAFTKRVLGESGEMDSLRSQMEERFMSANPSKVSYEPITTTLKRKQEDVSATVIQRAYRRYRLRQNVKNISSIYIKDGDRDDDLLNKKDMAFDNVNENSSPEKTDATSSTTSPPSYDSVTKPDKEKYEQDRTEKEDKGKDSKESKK

## COC(=O)[C@@H](NC(=O)[C@H](CCC(=O)OC(C)(C)C)NC(=O)[C@H](CC(C)C)NC(=O)[C@@H]1CCCN1C(=O)OCc1ccccc1)C(C)C [PW164] (Cbz-PLE(OtBu)V-OMe)
Nav1.7 + FGF13-GFP, recovery potential -100
  Time constant of repriming, Mean: 42.57 ms
Nav1.7 + FGF13-GFP, recovery potential -120
  Time constant of repriming, Mean: 33.57 ms
Nav1.7 + FGF13-GFP, recovery potential -140
  Time constant of repriming, Mean: 16.96 ms
Nav1.7 + GFP, recovery potential -60
  Time constant of repriming, Mean: 57.89 ms
Nav1.7 + GFP, recovery potential -70
  Time constant of repriming, Mean: 65.42 ms
Nav1.7 + GFP, recovery potential -80
  Time constant of repriming, Mean: 71.67 ms
Nav1.7 + GFP, recovery potential -90
  Time constant of repriming, Mean: 61.78 ms
Nav1.7 + GFP, recovery potential -100
  Time constant of repriming, Mean: 47.69 ms
Nav1.7 + GFP, recovery potential -120
  Time constant of repriming, Mean: 34.63 ms
Nav1.7 + GFP, recovery potential -140
  Time constant of repriming, Mean: 16.6 ms
FGF13-GFP + PW164 50 μM
  Activation: −19.7 ± 0.9 mV
  Long-term inactivation, 2nd Pulse: −69.72 ± 5.21 % maximal Na+ current
  Long-term inactivation, 3rd Pulse: −60.33 ± 5.60 % maximal Na+ current
  Long-term inactivation, 4th Pulse: −59.34 ± 4.68 % maximal Na+ current
  Peak Density: −26.7 ± 3.6 pA/pF
  Steady state inactivation: −64.7 ± 2.1 mV
  Tau (τ): 0.80 ± 0.03 ms
FGF13A GFP (FGF13-1a) + PW164
  Activation: −26.91 ± 1.25 mV
  Peak Density: −109.1 ± 11.7 pA/pF
  Steady state inactivation: −63.11 ± 2.14 mV
  Tau (τ): 1.41 ± 0.06 ms
FGF13A-GFP (FGF13-1a) + PW164
  Long-term inactivation, 2nd Pulse: −47.28 ± 4.68 % maximal Na+ current
  Long-term inactivation, 3rd Pulse: −35.27 ± 3.04 % maximal Na+ current
  Long-term inactivation, 4th Pulse: −29.22 ± 4.16 % maximal Na+ current
GFP + PW164 50 μM
  Activation: −26.1 ± 0.4 mV
  Long-term inactivation, 2nd Pulse: −67.94 ± 3.77 % maximal Na+ current
  Long-term inactivation, 3rd Pulse: −62.35 ± 5.35 % maximal Na+ current
  Long-term inactivation, 4th Pulse: −60.93 ± 3.90 % maximal Na+ current
  Peak Density: −69.2 ± 7.5 pA/pF
  Steady state inactivation: −83.5 ± 1.7 mV
  Tau (τ): 1.48 ± 0.25 ms
HEK-Nav1.7 coexpressing FGF13-GFP, Fig 1F, read-out: IC50, reversal of FGF13-induced increase in INa density
  IC50: 6.74 ± 0.5 µM
Nav1.7 + FGF13-GFP, at -60, N 5
  Time constant (ms), Mean (Figure 4J): 36.71 ms
Nav1.7 + FGF13-GFP, at -70, N 5
  Time constant (ms), Mean (Figure 4J): 42.79 ms
Nav1.7 + FGF13-GFP, at -80, N 5
  Time constant (ms), Mean (Figure 4J): 44.71 ms
Nav1.7 + FGF13-GFP, at -90, N 5
  Time constant (ms), Mean (Figure 4J): 37.77 ms
Nav1.7 + FGF13-GFP, at -100, N 5
  Time constant (ms), Mean (Figure 4J): 28.49 ms
Nav1.7 + FGF13-GFP, at -120, N 5
  Time constant (ms), Mean (Figure 4J): 23.55 ms
Nav1.7 + FGF13-GFP, at -140, N 5
  Time constant (ms), Mean (Figure 4J): 14.96 ms
Nav1.7 + GFP, at -60, N 6
  Time constant (ms), Mean (Figure 4J): 50.23 ms
Nav1.7 + GFP, at -70, N 6
  Time constant (ms), Mean (Figure 4J): 52.23 ms
Nav1.7 + GFP, at -80, N 6
  Time constant (ms), Mean (Figure 4J): 56.52 ms
Nav1.7 + GFP, at -90, N 6
  Time constant (ms), Mean (Figure 4J): 45.93 ms
Nav1.7 + GFP, at -100, N 6
  Time constant (ms), Mean (Figure 4J): 35.06 ms
Nav1.7 + GFP, at -120, N 6
  Time constant (ms), Mean (Figure 4J): 27.11 ms
Nav1.7 + GFP, at -140, N 6
  Time constant (ms), Mean (Figure 4J): 15.6 ms
Nav1.7 cells coexpressing FGF13-1a-GFP (FGF13S)
  activity on Nav1.7 currents: inactive
